Patent US7166435B2 (priority 2001, dated 2007)
“Also recorded” adds a separate entry of the source. Read-outs that look alike come from different tables or passages of the source.

Experiments:
[1] = tested on: Influenza B/Guangdong/120/00; type: cell-based; settings: Citrate Buffer control
Influenza A/Moscow/10/99 = type: cell-based; settings: Citrate Buffer control
influenza virus = type: in vivo, ferret; settings: for Mean Difference (I−J), Weight Change separated into pens: pairwise comparison
[2] = recipient ferrets, 8 per group, >2SD rise in temperature

O=C(O)CC(O)(CC(=O)O)C(=O)O [Citrate Buffer]
B/Guangdong log reductions ([1]; 1 minute incubation): 1.80 −log10 TCID50 | Residual B/Guangdong titer ([1]; 1 minute incubation): 0.00 −log10 TCID50 | B/Guangdong log reductions ([1]; 2 minute incubation): 1.80 −log10 TCID50 | Residual B/Guangdong titer ([1]; 2 minute incubation): 0.00 −log10 TCID50 | B/Guangdong log reductions ([1]; 5 minute incubation): 1.80 −log10 TCID50 | Residual B/Guangdong titer ([1]; 5 minute incubation): 0.00 −log10 TCID50 | A/Moscow log reductions (Influenza A/Moscow/10/99; 1 minute incubation): 1.00 −log10 TCID50 | Residual A/Moscow titer (Influenza A/Moscow/10/99; 1 minute incubation): 1.80 −log10 TCID50 | A/Moscow log reductions (Influenza A/Moscow/10/99; 2 minute incubation): 1.00 −log10 TCID50 | Residual A/Moscow titer (Influenza A/Moscow/10/99; 2 minute incubation): 1.80 −log10 TCID50 | A/Moscow log reductions (Influenza A/Moscow/10/99; 5 minute incubation): 2.80 −log10 TCID50 | Residual A/Moscow titer (Influenza A/Moscow/10/99; 5 minute incubation): 0.00 −log10 TCID50

CCOC(=O)C1=C[C@@H](OC(CC)CC)[C@H](NC(C)=O)[C@@H](N)C1 [Tamiflu ™, oseltamivir phosphate]
No. of Ferrets per pen with Fever (>2SD rise), mild febrile illness (influenza virus; four recipient ferrets per pen, pens a and b): 2 | X^2 analysis of fever (2SD rise), p PBS versus treatment (influenza virus; in vivo): 0.106 | X^2 analysis of fever (3SD rise), p PBS versus treatment (influenza virus; in vivo): 0.106 | seroconversion of recipient ferrets (influenza virus; in vivo): did not seroconvert; also recorded: no seroconversion | Mean Difference (I−J), Weight Change separated into pens (influenza virus; (I) group PBS minus (J) treatment group, recipient ferrets, weight loss peak to trough as percentage of day 0 baseline weight): −1.880 | weight loss, p PBS versus treatment (influenza virus; recipient ferrets): 0.003 | % within Group No., Fever => 2SD rise from baseline: No (influenza virus; [2]): 50% | % within Group No., Fever => 2SD rise from baseline: yes (influenza virus; [2]): 50% | Count of ferrets, Fever => 2SD rise from baseline: No (influenza virus; [2]): 4 | Count of ferrets, Fever => 2SD rise from baseline: yes (influenza virus; [2]): 4 | Weight Change separated into pens, Mean (influenza virus; recipient ferrets, peak to trough as a percentage of the baseline weight on day 0): −.980% | No. of ferrets per group with Fever (>2SD rise), mild febrile illness (influenza virus; two pens per group): 4 | No. of ferrets per group with Fever (>3SD rise) (influenza virus; two pens per group): 1

CCOC(=O)C1=C[C@@H](OC(CC)CC)[C@H](NC(C)=O)[C@@H](N)C1 [Tamiflu]
Mean Difference (I−J), Weight Change separated into pens (influenza virus; (I) treatment group minus (J) 25% horseradish): .161 | Mean Difference (I−J), Weight Change separated into pens (influenza virus; (I) treatment group minus (J) 50% horseradish): .497 | Mean Difference (I−J), Weight Change separated into pens (influenza virus; (I) treatment group minus (J) 100% Horseradish): .251 | Mean Difference (I−J), Weight Change separated into pens (influenza virus; (I) treatment group minus (J) PBS, recipient ferrets): −1.880
